Literature values as cited in patent US7981605B2, “Epidermal growth factor receptor mutations” (Amgen Inc., priority 2005, dated 2011).

Key:
[1] = tested on: NSCLC tumors with EGFr mutations; conditions: deletions in amino acids 746-759 region, L858R, L861Q, G719C, G719S, R776C/L858R (Lynch, Paez, Pao 2004)
A431 tumor xenografts = conditions: athymic mice

Compound | sensitivity of NSCLC tumors with EGFr mutations [1] | formation of A431 xenografts (A431 tumor xenografts)
C#Cc1cccc(Nc2ncnc3cc(OCCOC)c(OCCOC)cc23)c1 [erlotinib, N-(3-ethynylphenyl)-6,7-bis(2-methoxyethoxy)-4-quinazolinamine] | display sensitivity | –
panitumumab: a human IgG2 monoclonal antibody against human EGFr; human anti-EGFr antibody (Amgen) | – | preventing the formation of human epidermoid carcinoma A431 xenografts
